Data on one compound can be found in patent US20250297243A1, “SINGLE CELL MULTIOMICS” (BioSkryb Genomics, Inc., priority 2022, published 2025).

Molecules are shown by their SMILES.

The assay deals with MOLM-13 acute myeloid leukemia cells. Nature of the assay: MOLM-13 quizartinib drug resistance model (cell growth under continual drug treatment). Type of assay: cell-based. The procedure: Since the ITD mutation, found in ˜20% of AML patients, hyperactivates FLT3 signaling and results in poor prognosis and relapse, non-resistant, drug-sensitive cells were treated with a continual dose of 2 nM quizartinib. This drug is a selective type II kinase inhibitor targeting FLT3. […] MOLM-13 acute myeloid leukemia cells harboring heterozygous FLT3 internal tandem duplication (ITD) were obtained from the DSMZ-German Collection of Microorganisms and Cell Cultures (ACC 554). Cells were maintained in RPMI 1640 (Gibco 11875-093) supplemented with 10% FBS and penicillin/streptomycin, and sub-cultured every 2-3 days while maintaining a density range of 2.5 E5-1.5 E6 cells/ml. For generation of the quizartinib-resistant MOLM-13 line, cells were continually treated with 2 nM quizartinib (Selleckchem AC220) or DMSO vehicle control for matched parental control line and drug replenished at each subculturing until emergence of resistant clones at 5 weeks duration in culture. Genomic DNA (Zymo Research Quick-DNA Microprep w\Plus Kit, D3020) or total RNA (Qiagen RNeasy Plus Kit, 74034) was isolated from quizartinib-resistant and matched parental MOLM-13 cells at time of FACS sorting to generate bulk sequencing control libraries for comparison to single cell datasets and for quantitative PCR template.

With `CC(C)(C)c1cc(NC(=O)Nc2ccc(-c3cn4c(n3)sc3cc(OCCN5CCOCC5)ccc34)cc2)no1` [quizartinib], the “emergence of resistant clones, duration in culture” value (continual 2 nM quizartinib, drug replenished at each subculturing) is 5 weeks. For the same compound, the “growth inhibition/apoptosis of drug-sensitive MOLM-13 cells” value (continual dose of 2 nM quizartinib, FLT3 ITD MOLM-13 cells, before resistance emerged) is on record as “marked growth inhibition/apoptosis”.
